How the values were obtained:
Adenosine receptor A1 = target: T1, Adenosine receptor A1 (Homo sapiens, UniProt P30542); assay: Displacement of [3H]CCPA from human adenosine A1 receptor expressed in CHO cells; type: cell-based
T1 sequence (P30542 whole entry): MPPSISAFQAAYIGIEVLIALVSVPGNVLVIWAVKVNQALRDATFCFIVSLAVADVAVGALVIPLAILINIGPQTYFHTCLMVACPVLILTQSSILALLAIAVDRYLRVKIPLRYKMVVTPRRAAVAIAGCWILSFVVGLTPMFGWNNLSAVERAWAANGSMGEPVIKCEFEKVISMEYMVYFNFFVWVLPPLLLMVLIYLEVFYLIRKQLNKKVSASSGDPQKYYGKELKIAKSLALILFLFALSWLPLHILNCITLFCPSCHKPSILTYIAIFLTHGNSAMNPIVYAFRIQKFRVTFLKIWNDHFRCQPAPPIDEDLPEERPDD

Adenosine receptor A3 = target: T2, Adenosine receptor A3 (Homo sapiens, UniProt P0DMS8); assay: Displacement of [3H]NECA from human adenosine A3 receptor expressed in CHO cells; type: cell-based
T2 sequence (P0DMS8 whole entry): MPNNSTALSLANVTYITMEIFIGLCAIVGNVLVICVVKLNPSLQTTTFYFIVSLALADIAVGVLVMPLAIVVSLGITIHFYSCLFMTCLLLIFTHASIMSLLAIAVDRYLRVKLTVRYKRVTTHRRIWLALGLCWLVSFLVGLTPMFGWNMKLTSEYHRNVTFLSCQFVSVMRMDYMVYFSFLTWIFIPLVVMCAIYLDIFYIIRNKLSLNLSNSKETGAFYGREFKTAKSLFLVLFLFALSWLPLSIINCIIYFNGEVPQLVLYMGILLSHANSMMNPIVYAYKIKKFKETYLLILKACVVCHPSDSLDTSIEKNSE

Adenosine receptor A2b = target: T3, Adenosine receptor A2b (Homo sapiens, UniProt P29275); assay: Antagonist activity at human adenosine A2B receptor expressed in CHO cells assessed as inhibition of NECA-induced adenylyl cyclase activity; type: functional, cell-based
T3 sequence (P29275 whole entry): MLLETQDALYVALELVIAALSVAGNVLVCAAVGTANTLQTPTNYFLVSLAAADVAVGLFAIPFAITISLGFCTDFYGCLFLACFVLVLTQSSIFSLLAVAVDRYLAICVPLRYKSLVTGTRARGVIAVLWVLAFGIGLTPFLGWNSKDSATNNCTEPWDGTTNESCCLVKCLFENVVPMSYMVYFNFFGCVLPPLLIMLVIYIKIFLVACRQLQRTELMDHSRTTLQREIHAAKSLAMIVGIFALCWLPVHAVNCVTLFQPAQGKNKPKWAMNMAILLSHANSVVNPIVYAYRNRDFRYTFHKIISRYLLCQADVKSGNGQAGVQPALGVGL

Adenosine receptor A2a = Adenosine receptor A2a (Homo sapiens, UniProt P29274); assay: biochemical
Chain of Adenosine receptor A2a (P29274 whole entry): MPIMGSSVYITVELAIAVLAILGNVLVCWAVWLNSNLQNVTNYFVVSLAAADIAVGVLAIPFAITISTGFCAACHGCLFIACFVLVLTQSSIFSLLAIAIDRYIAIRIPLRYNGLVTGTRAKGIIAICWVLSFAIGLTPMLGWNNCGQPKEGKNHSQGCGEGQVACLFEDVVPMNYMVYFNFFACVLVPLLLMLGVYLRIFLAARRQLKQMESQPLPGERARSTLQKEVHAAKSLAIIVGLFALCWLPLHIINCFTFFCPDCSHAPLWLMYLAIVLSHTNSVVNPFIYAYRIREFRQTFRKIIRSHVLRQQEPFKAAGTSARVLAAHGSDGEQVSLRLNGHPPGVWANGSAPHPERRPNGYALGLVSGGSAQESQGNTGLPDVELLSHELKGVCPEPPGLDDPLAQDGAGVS
Description: Displacement of [3H]NECA from human adenosine A2A receptor expressed in CHO cells

| SMILES | Ki (Adenosine receptor A1) | Ki (Adenosine receptor A3) | IC50 (Adenosine receptor A2b) | Ki (Adenosine receptor A2a) |
| --- | --- | --- | --- | --- |
| O=C(Cc1cccc2ccccc12)Nc1nc2nn(CCCc3ccccc3)cc2c2nc(-c3ccco3)nn12 | 710 nM | 343 nM | > 100000 nM | 305 nM |
| O=C(Cc1ccccc1)Nc1nc2nn(CCc3ccccc3)cc2c2nc(-c3ccco3)nn12 | 128 nM | 5.49 nM | > 3000 nM | 43.9 nM |
| O=C(Cc1cccc(Cl)c1)Nc1nc2nn(CCc3ccccc3)cc2c2nc(-c3ccco3)nn12 | 13.2 nM | 273 nM | 9100 nM | – |
| O=C(Cc1ccsc1)Nc1nc2nn(CCc3ccccc3)cc2c2nc(-c3ccco3)nn12 | 22.8 nM | 726 nM | > 10000 nM | – |
| CCCCn1cc2c(nc(NC(=O)Cc3ccsc3)n3nc(-c4ccco4)nc23)n1 | 25.5 nM | 189 nM | 906 nM | 3.13 nM |
| CCn1cc2c(nc(NC(=O)Cc3cccc4ccccc34)n3nc(-c4ccco4)nc23)n1 | 596 nM | 3.05 nM | > 50000 nM | 74.6 nM |
| CCn1cc2c(nc(NC(=O)Cc3ccc(-c4ccccc4)cc3)n3nc(-c4ccco4)nc23)n1 | 557 nM | 14.2 nM | > 50000 nM | 70.9 nM |
| CCCCn1cc2c(nc(NC(=O)C(c3ccccc3)c3ccccc3)n3nc(-c4ccco4)nc23)n1 | 129 nM | 1.2 nM | 780 nM | 114 nM |
| CC(C)CCn1cc2c(nc(NC(=O)Cc3c(Cl)cccc3Cl)n3nc(-c4ccco4)nc23)n1 | 121 nM | 207 nM | 1440 nM | 18.7 nM |
| CC(C)CCn1cc2c(nc(NC(=O)Cc3ccc(Cl)cc3)n3nc(-c4ccco4)nc23)n1 | 22.6 nM | 56.5 nM | 1220 nM | 2.75 nM |
| CCCCn1cc2c(nc(NC(=O)Cc3ccc(-c4ccccc4)cc3)n3nc(-c4ccco4)nc23)n1 | 381 nM | 189 nM | 8630 nM | 39.6 nM |
| CCCn1cc2c(nc(NC(=O)Cc3ccc(-c4ccccc4)cc3)n3nc(-c4ccco4)nc23)n1 | 622 nM | 65.4 nM | > 10000 nM | 52.5 nM |
| Cn1cc2c(nc(NC(=O)Cc3ccc(Cl)cc3)n3nc(-c4ccco4)nc23)n1 | 1850 nM | 12.7 nM | > 50000 nM | 156 nM |
| O=C(Cc1ccc(-c2ccccc2)cc1)Nc1nc2nn(CCc3ccccc3)cc2c2nc(-c3ccco3)nn12 | 84.3 nM | 125 nM | 11100 nM | 46.9 nM |
| CCn1cc2c(nc(NC(=O)Cc3cccs3)n3nc(-c4ccco4)nc23)n1 | 148 nM | 196 nM | 15000 nM | 15.9 nM |
| O=C(Nc1nc2nn(CCc3ccccc3)cc2c2nc(-c3ccco3)nn12)C(c1ccccc1)c1ccccc1 | 115 nM | 6.49 nM | 5840 nM | 53.1 nM |
| Cn1cc2c(nc(NC(=O)Cc3cccs3)n3nc(-c4ccco4)nc23)n1 | 444 nM | 5.26 nM | > 10000 nM | 56 nM |
| CC(C)CCn1cc2c(nc(NC(=O)Cc3ccc(C(F)(F)F)cc3)n3nc(-c4ccco4)nc23)n1 | 48.2 nM | 266 nM | 5480 nM | 5.43 nM |
| Cn1cc2c(nc(NC(=O)Cc3ccc(-c4ccccc4)cc3)n3nc(-c4ccco4)nc23)n1 | 1460 nM | 11.2 nM | > 10000 nM | 193 nM |
| Cn1cc2c(nc(NC(=O)Cc3ccc(F)cc3)n3nc(-c4ccco4)nc23)n1 | 741 nM | 0.97 nM | 13000 nM | 54.1 nM |
| O=C(Cc1ccc(F)cc1)Nc1nc2nn(CCCc3ccccc3)cc2c2nc(-c3ccco3)nn12 | 726 nM | 58.5 nM | > 50000 nM | 211 nM |
| CCCCn1cc2c(nc(NC(=O)Cc3cccs3)n3nc(-c4ccco4)nc23)n1 | 70.1 nM | 99.8 nM | 1810 nM | 4.15 nM |
| Cn1cc2c(nc(NC(=O)Cc3c(Cl)cccc3Cl)n3nc(-c4ccco4)nc23)n1 | 908 nM | 44.4 nM | 6450 nM | 45.2 nM |
| CCCn1cc2c(nc(NC(=O)C(c3ccccc3)c3ccccc3)n3nc(-c4ccco4)nc23)n1 | 80.2 nM | 0.93 nM | 491 nM | 46.5 nM |

| SMILES | Ki (Adenosine receptor A1) | Ki (Adenosine receptor A3) | IC50 (Adenosine receptor A2b) | Ki (Adenosine receptor A2a) |
| --- | --- | --- | --- | --- |
| O=C(Cc1cccs1)Nc1nc2nn(CCc3ccccc3)cc2c2nc(-c3ccco3)nn12 | 18.5 nM | 330 nM | > 10000 nM | – |
| CCn1cc2c(nc(NC(=O)Cc3ccsc3)n3nc(-c4ccco4)nc23)n1 | 154 nM | 765 nM | 9370 nM | 23 nM |
| Cn1cc2c(nc(NC(=O)Cc3ccc4ccccc4c3)n3nc(-c4ccco4)nc23)n1 | 190 nM | 14.5 nM | > 10000 nM | 77.5 nM |
| O=C(Cc1ccc2ccccc2c1)Nc1nc2nn(CCc3ccccc3)cc2c2nc(-c3ccco3)nn12 | 57.5 nM | 180 nM | > 50000 nM | 42.1 nM |
| CCCCn1cc2c(nc(NC(=O)Cc3cccc4ccccc34)n3nc(-c4ccco4)nc23)n1 | 170 nM | 100 nM | 7370 nM | – |
| Cn1cc2c(nc(NC(=O)Cc3ccc(C(F)(F)F)cc3)n3nc(-c4ccco4)nc23)n1 | 768 nM | 1.22 nM | > 10000 nM | 75.9 nM |
| O=C(Cc1ccc2ccccc2c1)Nc1nc2nn(CCCc3ccccc3)cc2c2nc(-c3ccco3)nn12 | 241 nM | 717 nM | > 50000 nM | 73.6 nM |
| Cn1cc2c(nc(NC(=O)Cc3cccc4ccccc34)n3nc(-c4ccco4)nc23)n1 | 872 nM | 3.47 nM | > 10000 nM | 80.5 nM |
| O=C(Nc1nc2nn(CCCc3ccccc3)cc2c2nc(-c3ccco3)nn12)C(c1ccccc1)c1ccccc1 | 307 nM | 12.6 nM | > 10000 nM | 326 nM |
| CCCn1cc2c(nc(NC(=O)Cc3cccc4ccccc34)n3nc(-c4ccco4)nc23)n1 | 388 nM | 17.3 nM | 12400 nM | 38.7 nM |
| O=C(COc1ccc(Cl)cc1)Nc1nc2nn(CCCc3ccccc3)cc2c2nc(-c3ccco3)nn12 | 71.1 nM | 400 nM | > 10000 nM | – |
| CC(C)CCn1cc2c(nc(NC(=O)Cc3cccc(Cl)c3)n3nc(-c4ccco4)nc23)n1 | 13.7 nM | 273 nM | 1390 nM | 1.86 nM |
| CC(C)CCn1cc2c(nc(NC(=O)Cc3ccc(-c4ccccc4)cc3)n3nc(-c4ccco4)nc23)n1 | 84.3 nM | 268 nM | 8960 nM | – |
| Cn1cc2c(nc(NC(=O)Cc3ccsc3)n3nc(-c4ccco4)nc23)n1 | 461 nM | 1.25 nM | 13700 nM | 31.3 nM |
| COc1ccc(CC(=O)Nc2nc3nn(C)cc3c3nc(-c4ccco4)nn23)cc1 | 133 nM | 0.95 nM | > 10000 nM | 62.5 nM |
| CC(C)CCn1cc2c(nc(NC(=O)Cc3ccc4ccccc4c3)n3nc(-c4ccco4)nc23)n1 | 140 nM | 409 nM | > 10000 nM | 15.7 nM |
| CCCn1cc2c(nc(NC(=O)Cc3ccc4ccccc4c3)n3nc(-c4ccco4)nc23)n1 | 160 nM | 95.9 nM | 5370 nM | 7.99 nM |
| Cn1cc2c(nc(NC(=O)COc3ccc(Cl)cc3)n3nc(-c4ccco4)nc23)n1 | 963 nM | 223 nM | > 10000 nM | 39.3 nM |
| CC(C)CCn1cc2c(nc(NC(=O)C(c3ccccc3)c3ccccc3)n3nc(-c4ccco4)nc23)n1 | 441 nM | 5.86 nM | > 10000 nM | 159 nM |
| CC(C)CCn1cc2c(nc(NC(=O)Cc3ccc(F)cc3)n3nc(-c4ccco4)nc23)n1 | 51.8 nM | 116 nM | 5060 nM | 3.69 nM |
| CCn1cc2c(nc(NC(=O)Cc3ccc4ccccc4c3)n3nc(-c4ccco4)nc23)n1 | 185 nM | 36.3 nM | 10400 nM | 18.4 nM |
| Cn1cc2c(nc(NC(=O)C(c3ccccc3)c3ccccc3)n3nc(-c4ccco4)nc23)n1 | 139 nM | 0.25 nM | 363 nM | 216 nM |
| Cn1cc2c(nc(NC(=O)Cc3cccc(Cl)c3)n3nc(-c4ccco4)nc23)n1 | 410 nM | 1.94 nM | 8960 nM | 30.5 nM |
